Test results: ChEMBL document CHEMBL3352792, “Fragment based search for small molecule inhibitors of HIV-1 Tat-TAR” (Bioorg Med Chem Lett, 2014)
Structures can show the parent of a compound that is named as a salt. Active and inactive are the calls of the source. The rule behind the calls is not given here.

How the values were obtained:
Nucleic Acid [1] = test: Binding affinity to HIV-1 TAR RNA by Tat-TAR fluorimetric competition assay; format: nucleic-acid assay, Human immunodeficiency virus 1
Nucleic Acid [2] = test: Binding affinity to HIV-1 TAR RNA using 2 equivalents of compound by 1H NMR titration method; format: nucleic-acid assay; settings: Human immunodeficiency virus 1
Nucleic Acid [3] = test: Binding affinity to HIV-1 TAR RNA at 0.4 mM by 1H NMR titration method; format: nucleic-acid assay; settings: Human immunodeficiency virus 1

Compound | IC50 (Nucleic Acid [1]) [µM] | Activity (Nucleic Acid [2]) | Activity (Nucleic Acid [3])
Nc1ccccn1 [2-AMINOPYRIDINE] | > 20000 |  | 
Nc1nc(N)c2cc(CN3CCNCC3)ccc2n1 | 60 |  | 
CNC1=Nc2cccc3cccc(c23)N1 | 50 |  | 
Nc1ccc2ccncc2c1 | 2000 |  | 
Nc1ccc2nc(N)nc(N)c2c1 [QUINAZOLINE-2,4,6-TRIAMINE] | 40 | Active | 
NC1=Nc2cccc3cccc(c23)N1 | 50 |  | 
CN(C)c1ccc2nc(N)nc(N)c2c1 | 45 |  | 
Nc1ncccn1 | > 20000 |  | 
Nc1nc2ccccc2c(=O)[nH]1 | > 20000 |  | 
CN(C)C1=Nc2cccc3cccc(c23)N1 | 150 |  | 
N=C(N)Nc1ccccc1 | > 20000 |  | 
Cc1ccc2nc(N)nc(N)c2c1 | 2000 |  | 
N=C(N)NCc1ccccc1 | > 20000 |  | 
NCc1ccc2nc(N)nc(N)c2c1 | 70 |  | 
Nc1nc(N)c2ccccc2n1 | 400 |  | 
c1ccc(CNC2=NCCN2)cc1 | > 20000 |  | 
NCc1cnc2nc(N)nc(N)c2n1 | 50 |  | 
Nc1nc2ccccc2[nH]1 | > 11000 |  | 
CN(C)c1nc(N(C)C)c2cc(N)ccc2n1 | 130 |  | 
Nc1ncc[nH]1 | > 2000 |  | 
Nc1ccc2ccnc(N)c2c1 | 150 |  | Active
Nc1nc(N)c2c(N)c(N)ccc2n1 | 50 |  | 
Nc1nccc2ccc(O)cc12 | 750 |  | 
Nc1cccc2c(N)nccc12 | 700 |  | 
N=C(N)N [GUANIDINE HYDROCHLORIDE] | > 20000 |  | 
Nc1nc(N)c2cc(NCc3ccccc3)ccc2n1 | 50 |  | 
NC1=Nc2ccccc2CN1 | > 10000 |  | 
Nc1ccc2c(N)nc(N)nc2c1 | 110 |  | 
